# Laboratory results from patent US12109204B2, “Methods for treating muscular dystrophies” (The Regents of the University of California, priority 2018, dated 2024).
# Entries after “also recorded” stand apart in the source; their conditions may differ.
# Legend:
# Type in all cases: cell-based, murine
# [1] = system: hSSPN-EGFP myotubes (human sarcospan promoter reporter in C2C12); assay: hSSPN-EGFP reporter myotube assay (high-content imaging); settings: for hSSPN-EGFP reporter activity, counterscreen: doses between 3.9 nm to 1 μM, 48 hours (FIG. 10a); for hit call in an earlier assay: no details given
# [2] = system: hSSPN-EGFP myotubes (human sarcospan promoter reporter in C2C12); assay: as above; settings: for fluorescence intensity over vehicle, primary screen hit call: primary screen of 3,200 molecules, 5.5 μM, 48 hours, n=1, hit cutoff 1.4-fold; for hSSPN-EGFP RFU, Plate 1 / hSSPN-EGFP RFU, Plate 2: retest of screen hits at 5.5 μM; for hSSPN-EGFP RFU, Plate 1: Plate 1, n=24 per plate; for hSSPN-EGFP RFU, Plate 2: Plate 2, n=24 per plate
# Description: (§1) C2C12 immortalized murine myoblasts cultured in growth media consisting of DMEM (Gibco) with 20% Fetal Bovine Serum (Sigma-Aldrich) at 37° C. with 5% CO2 were transfected with the hSSPN-EGFP or hSSPN-Luciferase linearized plasmids using Lipofectamine 3000 Transfection Reagent (Thermo Fisher Scientific). Transfected cells were selected using 800 μg/ml of G418 (Sigma-Aldrich) for 4 weeks to generate stable cell lines expressing reporter protein under control of the human SSPN promoter.
# hSSPN-EGFP myoblasts were seeded at 500 cells per well in 50 μl of growth media in 384-well black, clear bottom microplates (Greiner) using a Multidrop 384 (Thermo Fisher Scientific) and incubated for 3 days. Upon reaching confluency, the growth media was replaced with 50 μl of differentiation media consisting of DMEM with 2% horse serum (Sigma-Aldrich) using an EL406 combination washer dispenser (Biotek). At day 2 of differentiation, the media on the cells was aspirated, left with a residual volume of 10 μl, and replaced with 30 μl of fresh differentiation media. 0.5 μl of small molecule in DMSO or DMSO alone (for vehicle and positive control wells) was added to each well using a Biomek Fx (Beckman). To ensure proper mixing of the DMSO, 50 μl of additional differentiation media was added to all wells except the positive control treated wells, which instead received 50 μl of media containing insulin transferrin selenium (ITS, Gibco) to reach a final concentration of 1% ITS. The final concentration of drug in each treated well was 5.5 μM in 0.55% DMSO and 0.55% DMSO for vehicle and positive control treated wells. After 48 hours of incubation, the media was replaced with Fluorobrite DMEM (Gibco) and each plate was imaged using ImageXpress Micro Confocal High Content Imaging System (Molecular Devices). The fluorescent intensity of imaged cells was determined using MetaXpress Analysis software (Molecular Devices). Analysis setting were as follows: top hat (size: 12, filter shape: circle), adaptive threshold (source: top hat, minimum width: 10, maximum width: 800, intensity above local background: 500), filter mask (filter type: minimum area filter, minimum value: 500). […]
# [3] = system: hSSPN-Luciferase reporter cells (human sarcospan promoter reporter in C2C12); assay: hSSPN-Luciferase reporter assay (Bright-Glo); settings: doses between 3.9 nm to 1 μM, 48 hours (FIG. 10b)
# Description: as §1
# hSSPN-Luciferase myoblasts were cultured as described above. After 48 hours of treatment, plates were allowed to equilibrate to room temperature before the media was aspirated using an EL406 combination washer dispenser at room temperature. Bright-Glo luciferase assay system reagent (Promega) and differentiation media were added to cells at a 1:2 dilution using a Multidrop 384. After a 3-minute incubation at room temperature, luminescence signal was quantified using an Envision plate reader (PerkinElmer). The relative luminescence units were analyzed to determine fold change of treated over vehicle treated cells.
# Cells were treated for 48 hours beginning at day 2 of differentiation with DMSO (vehicle control, ATCC), felodipine (Sigma), nilvadipine (Sigma), alloxazine (Sigma), GW5074 (Sigma), methylthioadenosine (Santa Cruz Biotechnology), or ezutromid (Cayman Chemicals) diluted in cell type specific differentiation media at doses listed in the figures. For gene expression studies, each treatment was performed in duplicate. For protein studies, each treatment was performed with single or double replicates.
# SSPN, sarcospan = assay: SSPN gene expression by qPCR in C2C12 wild-type myotubes; settings: 48h, normalized to GAPDH, n=2 (FIG. 11b), felodipine 10 μM
# Description: (§2) RNA from myotubes treated for 48 hours was extracted from cells using Trizol-based (Thermo Fisher Scientific) phase separation. RNA concentrations were determined using a NanoDrop 1000 (Thermo Fisher Scientific) and 750 ng of RNA in a 20 μl reaction was reverse transcribed using iScript cDNA synthesis (Bio-Rad) with the following cycling conditions: 25° C. for 5 minutes, 42° C. for 30 minutes, 85° C. for 5 minutes. For quantitative PCR, SsoFast EvaGreen Supermix (Bio-Rad), 400 nM of each optimized forward and reverse primer (for primer descriptions see Table 1), and cDNA corresponding to 37.5 ng RNA were used to amplify cDNA measured by Applied Biosystems 7300 (Thermo Fisher Scientific) with the following reaction conditions: 55° C. for 2 minutes, 95° C. for 2 minutes, 40 cycles of 95° C. for 10 seconds and 62° C. for 30 seconds, and dissociation stage. Each sample was run in triplicate. Data was analyzed using the ddCT method and normalized to reference gene, GAPDH or β-actin, with vehicle-treated samples serving as the calibrator (relative expression of vehicle control=1). C2C12 cells (American Type Culture Collection) were grown at 37° C. with 5% CO2 in growth media containing DMEM (Gibco) with 20% FBS (Sigma-Aldrich). Upon reaching confluency, the media was replaced with differentiation media containing DMEM with 2% horse serum (Sigma-Aldrich). Conditionally immortalized H2K mdx myoblast cells with a nonsense mutation in exon 23 of dystrophin were a gift from Terrance Partridge, Ph.D. (Children's National Medical Center, Washington, D.C.). Cells were allowed to proliferate on 0.01% gelatin (Sigma-Aldrich) coated plates at 33° C. with 5% CO2 with growth media containing DMEM, 20% HI-FBS (Invitrogen), 2% L-glutamine (Sigma-Aldrich), 2% chicken embryo extract (Accurate Chemical), 1% penicillin-streptomycin (Sigma-Aldrich), and 20U/ml of fresh interferon gamma (Gibco). For differentiation, H2K mdx myoblasts were seeded on plates coated with 0.1 mg/ml matrigel (Corning) diluted in DMEM and grown in proliferation conditions. […]
# UTRN, utrophin = assay: UTRN gene expression by qPCR in C2C12 wild-type myotubes; settings: C2C12 myotubes, 48h, normalized to GAPDH, n=2 (FIG. 11a); felodipine 10 μM
# Description: as §2, with “(Sigma-Aldrich).” for “(Sigma-Aldrich). Conditionally immortalized H2K mdx myoblast cells with a nonsense mutation in exon 23 of dystrophin were a gift from Terrance Partridge, Ph.D. (Children's National Medical Center, Washington, D.C.). Cells were allowed to proliferate on 0.01% gelatin (Sigma-Aldrich) coated plates at 33° C. with 5% CO2 with growth media containing DMEM, 20% HI-FBS (Invitrogen), 2% L-glutamine (Sigma-Aldrich), 2% chicken embryo extract (Accurate Chemical), 1% penicillin-streptomycin (Sigma-Aldrich), and 20U/ml of fresh interferon gamma (Gibco). For differentiation, H2K mdx myoblasts were seeded on plates coated with 0.1 mg/ml matrigel (Corning) diluted in DMEM and grown in proliferation conditions.”
SMILES,"hSSPN-EGFP reporter activity, counterscreen [1]","fluorescence intensity over vehicle, primary screen hit call [2]","hSSPN-EGFP RFU, Plate 1 [2]","hSSPN-EGFP RFU, Plate 2 [2]","hSSPN-Luciferase reporter activity, counterscreen [3]",hit call in an earlier assay [1],"SSPN gene expression relative to vehicle (SSPN, sarcospan)","UTRN gene expression relative to vehicle (UTRN, utrophin)"
"O=c1[nH]c(=O)c2nc3ccccc3nc2[nH]1 [Alloxazine, 1H-benzo[g]pteridine-2,4-dione]",increased activity,hits,1.0 RFU,1.1 RFU,increased activity,,,
"COC(=O)N=N/C=C1\C=[N+]([O-])c2ccccc2N1O [Carbodox, methyl N-[(E)-(1-hydroxy-4-oxidoquinoxalin-4-ium-2-ylidene)methyl]iminocarbamate]",,,1.1 RFU,1.1 RFU,,,,
"COC(=O)C1=C(C)NC(C)=C(C(=O)OC(C)C)C1c1cccc2nonc12 (centres unmarked) [Isradipine, 3-O-methyl 5-O-propan-2-yl 4-(2,1,3-benzoxadiazol-4-yl)-2,6-dimethyl-1,4-dihydropyridine-3,5-dicarboxylate]",,hits,1.5 RFU,1.4 RFU,,,,
"CC(=O)OC1CN2CCC1CC2 (centres unmarked) [Aceclidine, 1-Azabicyclo[2.2.2]oct-3-yl acetate]",,,1.1 RFU,1.1 RFU,,,,
"CCCCN1CCCC1CNC(=O)c1cc(C#N)c2ccccc2c1OC (centres unmarked) [Nafadotride, N-[(1-butylpyrrolidin-2-yl)methyl]-4-cyano-1-methoxynaphthalene-2-carboxamide]",,,1.1 RFU,1.0 RFU,,,,
"C[C@]12CC[C@H]3[C@@H](CCC4=CC(=O)CC[C@@H]43)[C@@H]1CC[C@@H]2O [Nandrolone, (8R,9S,10R,13 S,14S,17S)-17-hydroxy-13-methyl-2,6,7,8,9,10,11,12,14,15,16,17-dodecahydro-1H-cyclopenta[a]phenanthren-3-one]",,hits,1.2 RFU,1.1 RFU,,,,
"CC(C)NCC(O)c1ccc(O)c(O)c1 (centres unmarked) [Isoproterenol, 4-[1-hydroxy-2-(propan-2-ylamino)ethyl]benzene-1,2-diol]",,hits,1.1 RFU,1.1 RFU,,,,
"CSC[C@H]1O[C@@H](n2cnc3c(N)ncnc32)[C@H](O)[C@@H]1O [methylthioadenosine, (2R,3R,4S,5S)-2-(6-aminopurin-9-yl)-5-(methylsulfanylmethyl)oxolane-3,4-diol]",increased activity,,,,increased activity,among the hits,,
"CC[n+]1c(C=CC=C2N(C)c3ccccc3C2(C)C)sc2ccccc21.[I-] [AC-93253, 2-[3-(1,3-Dihydro-1,3,3-trimethyl-2H-indol-2-ylidene)-1-propenyl]-3-ethyl-benzothiazolium iodide]",,,,,,among the hits,,
"Nc1nc(=O)c2ncn(COCCO)c2[nH]1 [Acyclovir, 2-amino-9-(2-hydroxyethoxymethyl)-3H-purin-6-one]",,,0.9 RFU,1.0 RFU,,,,
"COC(=O)C1=C(C)NC(C)=C(C(=O)OC)C1c1ccccc1[N+](=O)[O-] [Nifedipine, dimethyl 2,6-dimethyl-4-(2-nitrophenyl)-1,4-dihydropyridine-3,5-dicarboxylate]",,hits,1.3 RFU,1.0 RFU,,,,
CCS(=O)(=O)c1ccc2oc(-c3ccc4ccccc4c3)nc2c1 [ezutromid],,,,,,,did not significantly increase SSPN gene expression; also recorded: did not significantly increase sarcospan levels,did not significantly increase UTRN levels; also recorded: did not increase utrophin gene expression
"O=C1Nc2ccc(I)cc2/C1=C/c1cc(Br)c(O)c(Br)c1 [GW5074, (3Z)-3-[(3,5-dibromo-4-hydroxyphenyl)methylidene]-5-iodo-1H-indol-2-one]",increased activity,hits,1.2 RFU,1.2 RFU,increased activity,,,
"COC(=O)C1=C(C#N)NC(C)=C(C(=O)OC(C)C)C1c1cccc([N+](=O)[O-])c1 (centres unmarked) [Nilvadipine, 3-O-methyl 5-O-propan-2-yl 2-cyano-6-methyl-4-(3-nitrophenyl)-1,4-dihydropyridine-3,5-dicarboxylate]",increased activity,hits,1.6 RFU,1.5 RFU,increased activity,,,
"CCOC(=O)C1=C(C)NC(C)=C(C(=O)OCC)C1c1ccccc1/C=C/C(=O)OC(C)(C)C [Lacidipine, diethyl 2,6-dimethyl-4-[2-[(E)-3-[(2-methylpropan-2-yl)oxy]-3-oxoprop-1-enyl]phenyl]-1,4-dihydropyridine-3,5-dicarboxylate]",,hits,1.3 RFU,1.2 RFU,,,,
